For data set [1], the system named is Rattus norvegicus. Briefly: Reduction of lymphocyte count in rat at 1 mg/kg, po measured at 24 hrs relative to control. In kind it is functional. Also on record: scale not given: the % may be the effect or the level left.
For data set [2], the target named is Sphingosine 1-phosphate receptor 1 (Homo sapiens, UniProt P21453). Briefly: Agonist activity at human S1P1R expressed in RH7777 membranes assessed as [35S]GTPgammaS binding after 30 mins. It counts as functional, cell membranes.
Data set [3] has as its system Rattus norvegicus. As to the kind of experiment: Reduction of lymphocyte count in rat at 1 mg/kg, po measured at 8 hrs relative to control. It counts as functional. Also on record: scale not given: the % may be the effect or the level left.
Data set [4] is described as follows: Oral bioavailability in C57BL/6 mouse at 3 mg/kg using 1% methylcellulose (w/v). In kind it is ADME, organism-based. To be noted: in vivo.
Data set [5] concerns Rattus norvegicus. As to the kind of experiment: Reduction of lymphocyte count in rat at 1 mg/kg, po measured at 4 hrs relative to control. It counts as functional. Also on record: scale not given: the % may be the effect or the level left.
Data set [6] in a line: Half life in po dosed C57BL/6 mouse at 1 mg/kg, iv using DMSO/1% methylcellulose 1:99 (w/v). In kind it is ADME, organism-based. Also on record: dose 1 mg/kg, route oral. To be noted: in vivo.
For another data set, the system named is Mus musculus. As to the kind of experiment: Volume of distribution at steady state in po dosed C57BL/6 mouse at 1 mg/kg, iv using DMSO/1% methylcellulose 1:99 (w/v). It counts as ADME, organism-based. Also on record: dose 1 mg/kg, route oral. To be noted: in vivo.
In data set [7] the target is Sphingosine 1-phosphate receptor 3 (Homo sapiens, UniProt Q99500). As to the kind of experiment: Agonist activity at human S1P3R expressed in RBL membranes assessed as [35S]GTPgammaS binding after 30 mins. It counts as functional, cell membranes.
Sequence of Sphingosine 1-phosphate receptor 3 (Q99500 whole entry): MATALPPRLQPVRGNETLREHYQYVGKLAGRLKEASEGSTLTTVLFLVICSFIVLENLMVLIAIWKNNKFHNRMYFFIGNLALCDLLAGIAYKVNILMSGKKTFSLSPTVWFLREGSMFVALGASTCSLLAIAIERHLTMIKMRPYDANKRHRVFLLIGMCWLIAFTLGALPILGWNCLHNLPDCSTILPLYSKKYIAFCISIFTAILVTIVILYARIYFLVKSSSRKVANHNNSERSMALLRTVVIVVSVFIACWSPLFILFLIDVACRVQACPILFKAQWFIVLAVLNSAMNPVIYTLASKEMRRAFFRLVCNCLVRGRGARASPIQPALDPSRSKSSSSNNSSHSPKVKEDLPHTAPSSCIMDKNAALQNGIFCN

Sequence of Sphingosine 1-phosphate receptor 1 (P21453 whole entry): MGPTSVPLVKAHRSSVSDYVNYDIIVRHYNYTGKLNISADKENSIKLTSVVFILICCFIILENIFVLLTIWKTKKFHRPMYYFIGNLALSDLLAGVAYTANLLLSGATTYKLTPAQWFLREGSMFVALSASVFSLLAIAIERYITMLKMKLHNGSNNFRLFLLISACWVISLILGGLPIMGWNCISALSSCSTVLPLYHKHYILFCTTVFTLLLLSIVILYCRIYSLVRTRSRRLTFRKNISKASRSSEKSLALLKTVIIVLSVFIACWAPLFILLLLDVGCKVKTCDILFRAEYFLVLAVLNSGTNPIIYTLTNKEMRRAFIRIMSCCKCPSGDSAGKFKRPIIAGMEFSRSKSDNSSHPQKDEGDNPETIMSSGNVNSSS

One may read the EC50 as the midpoint of the concentration-response curve. For orientation: bioavailability means dose-corrected exposure relative to a reference, in per cent. By half-life is commonly meant the time needed for the level to fall by half in the phase considered. For `CC(C)Oc1ccc(-c2nc(-c3ccc4c(c3)CCNCC4)no2)cc1C#N`, the Activity in the data set on Rattus norvegicus [1] was 6%; in the data set with Rattus norvegicus [3], 82%; in the data set on Rattus norvegicus [5], 75%. The EC50 in data set [2] was 25.1 nM; in data set [7] it was above 31600 nM. In data set [4], the bioavailability worked out at 63%. The same compound showed a half-life in data set [6] of 6.9 h. In the data set on Mus musculus, this compound had a Vdss of 9.1 L/kg.
